Data published in patent US11464770B2, “Anticancer pharmaceutical composition” (NATIONAL CANCER CENTER, priority 2016, dated 2022).
Read-outs that look alike come from different tables or passages of the source.

Legend:
[1] = system: blood cancer cell lines (e.g. HL-60, Jurkat, Raji, Ramos, Daudi, MOLT-4); assay: Cell based assay, cell viability (CellTiter-Glo), blood cancer cell lines; settings: Homo sapiens
Method: (§1) Commercially available bladder cancer, prostate cancer, lung cancer, breast cancer, blood cancer, pancreatic cancer, colorectal cancer, brain cancer, neuroblastoma, melanoma, liver cancer, cervical carcinoma, ovarian cancer, renal cancer, and papilloma cell lines were each treated with trypsin-EDTA and cultured, followed by being seeded in each well of a 96 well plate. After 24 hours of treatment at constant temperature, the respective cells were treated with the candidate compound so that a final concentration became 0 to 2 μM. The treated cells were additionally cultured for 72 hours, and cell viability was measured by using an ATP detection method (CellTiter-Glo® Luminescent Cell Viability Assay, Promega).

[2] = system: bladder cancer cell lines; assay: Cell based assay, cell viability (CellTiter-Glo), bladder cancer cell lines; settings: 72 hours treatment, 0 to 2 μM, CellTiter-Glo
Method: as §1

[3] = system: cervical carcinoma cell lines; assay: Cell based assay, cell viability (CellTiter-Glo), cervical carcinoma cell lines; settings: Homo sapiens; HeLa cells
Method: as §1, with “After 24 hours of treatment at constant temperature, the respective cells were treated with the candidate compound so that a final concentration became 0 to 2 μM.” left out

[4] = MV4-11, blood cancer cell line MV-4-11, 72 hours, read-out: IC50, MV-4-11
[5] = blood cancer cell line Daudi, 72 hours, read-out: IC50, Daudi
[6] = blood cancer cell line HL-60, 72 hours, read-out: IC50, HL-60
[7] = blood cancer cell line Jurkat, 72 hours, read-out: IC50, Jurkat
[8] = blood cancer cell line MOLT-4, 72 hours, read-out: IC50, MOLT-4
[9] = blood cancer cell line Raji, 72 hours, read-out: IC50, Raji
[10] = blood cancer cell line Ramos (RA 1), 72 hours, read-out: IC50, Ramos (RA 1)
[11] = blood cancer cell line U-937, 72 hours, read-out: IC50, U-937
[12] = 253J cells, read-out: IC50, bladder cancer cell line 253J
[13] = 5637 cells, read-out: IC50, bladder cancer cell line 5637
[14] = Homo sapiens, T-24, T24 cells, read-out: IC50, bladder cancer cell line T24
[15] = Homo sapiens, J82 cells, read-out: IC50, bladder cancer cell line J82
[16] = Homo sapiens, UMUC3, UM-UC-3 cells, read-out: IC50, bladder cancer cell line UM-UC-3
[17] = Homo sapiens, KU-19-19 cells, read-out: IC50, bladder cancer cell line KU-19-19
[18] = MBT-2 cells, read-out: IC50, bladder cancer cell line MBT-2

Row | Compound | IC50 [1, 4] | IC50 [1, 5] | IC50 [1, 6] | IC50 [1, 7] | IC50 [1, 8] | IC50 [1, 9] | IC50 [1, 10] | IC50 [1, 11] | IC50 [2, 12] | IC50 [2, 13] | IC50 [2, 14] | IC50 [2, 15] | IC50 [3] | IC50 [2, 16] | IC50 [2, 17] | IC50 [2, 18]
1 | CC(=O)c1c([S+]([O-])Cc2ccc(C(=O)c3ccccc3)cc2)[nH]c2c(Br)ccc(Cl)c2c1=O (centres unmarked) [Compound 63, 3-acetyl-2-((4-benzoylbenzyl)sulfinyl)-8-bromo-5-chloroquinolin-4(1H)-one] | > 2000 nM | > 2000 nM | > 2000 nM | > 2000 nM | > 2000 nM | > 2000 nM | > 2000 nM | > 2000 nM | > 2000 nM | > 2000 nM | > 2000 nM | > 2000 nM | > 10 µM |  |  | 
2 | CC(=O)c1c(Sc2ccccc2)[nH]c2c(Br)ccc(Cl)c2c1=O [Compound 12, 3-acetyl-8-bromo-5-chloro-2-(phenylthio)quinolin-4(1H)-one] | > 2000 nM | > 2000 nM | > 2000 nM | > 2000 nM | > 2000 nM | > 2000 nM | > 2000 nM | > 2000 nM | > 2000 nM | > 2000 nM | > 2000 nM | > 2000 nM | > 10 µM | > 2000 nM | > 2000 nM | > 2000 nM
3 | Cc1cc(C[S+]([O-])c2[nH]c3c(Cl)ccc(Cl)c3c(=O)c2C(=O)c2ccccc2)no1 (centres unmarked) [Compound 88, 3-benzoyl-5,8-dichloro-2-(((5-methylisoxazol-3-yl)methyl)sulfinyl)quinolin-4(1H)-one] | > 2000 nM | > 2000 nM | > 2000 nM | > 2000 nM | > 2000 nM | > 2000 nM | > 2000 nM | > 2000 nM | > 2000 nM | > 2000 nM | > 2000 nM | > 2000 nM | > 10 µM |  |  | 
4 | CC(=O)c1c([S+]([O-])CC#N)[nH]c2c(Br)ccc(Cl)c2c1=O (centres unmarked) [Compound 65, 2-((3-acetyl-8-bromo-5-chloro-4-oxo-1,4-dihydroquinolin-2-yl)sulfinyl)acetonitrile] | > 2000 nM | > 2000 nM | > 2000 nM | > 2000 nM | > 2000 nM | > 2000 nM | > 2000 nM | > 2000 nM | > 2000 nM | > 2000 nM | > 2000 nM | > 2000 nM | > 10 µM | > 2000 nM | > 2000 nM | > 2000 nM
5 | CC(=O)c1c([S+]([O-])C(C)c2ccccc2)[nH]c2c(Br)ccc(Cl)c2c1=O (centres unmarked) [Compound 26, 3-acetyl-8-bromo-5-chloro-2-((1-phenylethyl)sulfinyl)quinolin-4(1H)-one] | > 2000 nM | > 2000 nM | > 2000 nM | 1790 nM | 1740 nM | > 2000 nM | > 2000 nM | > 2000 nM | > 2000 nM | 1600 nM | > 2000 nM | > 2000 nM | > 10 µM |  |  | 
6 | CC(=O)c1c([S+](C)[O-])n(S(=O)(=O)c2ccc(C(C)(C)C)cc2)c2c(Br)ccc(Cl)c2c1=O (centres unmarked) [Compound 42, 3-acetyl-8-bromo-1-((4-(tert-butyl)phenyl)sulfonyl)-5-chloro-2-(methylsulfinyl)quinolin-4(1H)-one] | > 2000 nM | > 2000 nM | > 2000 nM | > 2000 nM | > 2000 nM | > 2000 nM | > 2000 nM | > 2000 nM | > 2000 nM | > 2000 nM | > 2000 nM | > 2000 nM | > 10 µM | 1890 nM | > 2000 nM | > 2000 nM
7 | CC(=O)c1c(S(=O)(=O)Cc2ccccc2)nc2c(Br)ccc(Cl)c2c1O [Compound 54, 1-(2-(benzylsulfonyl)-8-bromo-5-chloro-4-hydroxyquinolin-3-yl)ethan-1-one] | > 2000 nM | > 2000 nM | > 2000 nM | > 2000 nM | > 2000 nM | > 2000 nM | > 2000 nM | > 2000 nM | > 2000 nM | > 2000 nM | > 2000 nM | > 2000 nM | > 10 µM |  |  | > 2000 nM
8 | COc1cccc2[nH]c([S+]([O-])Cc3ccc(S(F)(F)(F)(F)F)cc3)c(C(C)=O)c(=O)c12 (centres unmarked) [Compound 93, 3-acetyl-5-methoxy-2-((4-(pentafluoro--sulfanyl)benzyl)sulfinyl)quinolin-4(1H)-one] | > 2000 nM | > 2000 nM | > 2000 nM | > 2000 nM | > 2000 nM | > 2000 nM | > 2000 nM | > 2000 nM | > 2000 nM | > 2000 nM | > 2000 nM | > 2000 nM | > 10 µM |  |  | 
9 | CSc1c(C(C)=O)c(=O)c2c(Cl)ccc(Br)c2n1S(=O)(=O)c1ccc([N+](=O)[O-])cc1 [Compound 38, 3-acetyl-8-bromo-5-chloro-2-(methylthio)-1-((4-nitrophenyl)sulfonyl)quinolin-4(1H)-one] | > 2000 nM | > 2000 nM | > 2000 nM | > 2000 nM | > 2000 nM | > 2000 nM | > 2000 nM | > 2000 nM | > 2000 nM | > 2000 nM | > 2000 nM | > 2000 nM | > 10 µM | > 2000 nM | > 2000 nM | > 2000 nM
10 | CC(=O)c1c(S/C=C\C(=O)O)[nH]c2c(Br)ccc(Cl)c2c1=O [Compound 67, (Z)-3-((3-acetyl-8-bromo-5-chloro-4-oxo-1,4-dihydroquinolin-2-yl)thio)acrylic acid] | > 2000 nM | > 2000 nM | > 2000 nM | > 2000 nM | > 2000 nM | > 2000 nM | > 2000 nM | > 2000 nM | > 2000 nM | > 2000 nM | > 2000 nM | > 2000 nM | > 10 µM | > 2000 nM | > 2000 nM | > 2000 nM
11 | CC(=O)c1c([S+]([O-])Cc2ccc(Cl)cc2)[nH]c2c(Br)ccc(Cl)c2c1=O (centres unmarked) [Compound 11, 3-acetyl-8-bromo-5-chloro-2-((4-chlorobenzyl)sulfinyl)quinolin-4(1H)-one] | > 2000 nM | > 2000 nM | > 2000 nM | > 2000 nM | > 2000 nM | > 2000 nM | > 2000 nM | > 2000 nM |  | > 2000 nM | 1830 nM | > 2000 nM | > 10 µM |  |  | 
12 | CC(=O)c1c([S+]([O-])Cc2ccccc2)n(C(=O)c2ccc(Br)cc2)c2c(Br)ccc(Cl)c2c1=O (centres unmarked) [Compound 20, 3-acetyl-2-(benzylsulfinyl)-8-bromo-1-(4-bromobenzoyl)-5-chloroquinolin-4(1H)-one] | > 2000 nM | > 2000 nM | > 2000 nM | > 2000 nM | > 2000 nM | 1180 nM | 1510 nM | > 2000 nM | > 2000 nM | > 2000 nM | > 2000 nM | > 2000 nM | > 10 µM | > 2000 nM | > 2000 nM | > 2000 nM
13 | CC(=O)c1c(SCc2ccc([N+](=O)[O-])cc2)[nH]c2c(Br)ccc(Cl)c2c1=O [Compound 32, 3-acetyl-8-bromo-5-chloro-2-((4-nitrobenzyl)thio)quinolin-4(1H)-one] | > 2000 nM | > 2000 nM | > 2000 nM | > 2000 nM | > 2000 nM | > 2000 nM | > 2000 nM | > 2000 nM | > 2000 nM | > 2000 nM | > 2000 nM | > 2000 nM | > 10 µM | > 2000 nM | > 2000 nM | > 2000 nM
14 | COc1ccccc1[S+]([O-])c1[nH]c2c(Br)ccc(Cl)c2c(=O)c1C(C)=O (centres unmarked) [Compound 15, 3-acetyl-8-bromo-5-chloro-2-((2-methoxyphenyl)sulfinyl)quinolin-4(1H)-one] | > 2000 nM | > 2000 nM | > 2000 nM | > 2000 nM | > 2000 nM | > 2000 nM | > 2000 nM | > 2000 nM | > 2000 nM | > 2000 nM | > 2000 nM | > 2000 nM | > 10 µM |  |  | 
15 | CSc1c(C(C)=O)c(=O)c2c(Cl)ccc(Br)c2n1S(C)(=O)=O [Compound 35, 3-acetyl-8-bromo-5-chloro-1-(methylsulfonyl)-2-(methylthio)quinolin-4(1H)-one] | > 2000 nM | > 2000 nM | > 2000 nM | > 2000 nM | > 2000 nM | > 2000 nM | > 2000 nM | > 2000 nM | > 2000 nM | > 2000 nM | > 2000 nM | > 2000 nM | > 10 µM | > 2000 nM | > 2000 nM | > 2000 nM
16 | CC(=O)c1c([S+]([O-])C(C)C)[nH]c2c(Br)ccc(Cl)c2c1=O (centres unmarked) [Compound 25, 3-acetyl-8-bromo-5-chloro-2-(isopropylsulfinyl)quinolin-4(1H)-one] | > 2000 nM | > 2000 nM | > 2000 nM | > 2000 nM | > 2000 nM | > 2000 nM | > 2000 nM | > 2000 nM | > 2000 nM | > 2000 nM | > 2000 nM | > 2000 nM | > 10 µM | > 2000 nM | > 2000 nM | > 2000 nM
17 | CC(=O)c1c([S+]([O-])Cc2ccc(S(F)(F)(F)(F)F)cc2)[nH]c2c(Br)ccc(Cl)c2c1=O (centres unmarked) [Compound 68, 3-acetyl-8-bromo-5-chloro-2-((4-(pentafluoro-16-sulfanyl)benzyl)sulfinyl)quinolin-4(1H)-one] | 1300 nM | 1210 nM | 1710 nM | 1000 nM | 1070 nM | 1020 nM | 1660 nM | > 2000 nM | 970 nM | 1460 nM | 1470 nM | 1490 nM | > 2 µM | 1110 nM | 1250 nM | 1070 nM
